US10253002B2, “Compounds and methods of treating infections” (Neoculi Pty Ltd., priority 2013, dated 2019)
Blank lines part the entries; values can stand above or below the compound they belong to.

Legend:
[1] = system: cell wall synthesis in S. aureus ATCC 29213; experiment: Macromolecular synthesis assay: cell wall synthesis ([14C]N-acetylglucosamine); assay type: cell-based, Staphylococcus aureus; conditions: positive control; 8 fold the MIC (2 μg/mL)
Protocol: Cells were grown at 35° C. overnight on Trypticase Soy agar. A colony from the plate was used to inoculate 10 ml of Mueller Hinton broth II (MHBII), and the culture was grown to early exponential growth phase (OD600==0.2 to 0.3) while incubating in a shaker at 35° C. and 200 rpm.
Bacterial cells in early exponential growth phase were transferred to M9 minimal medium and added to 1.5 mL eppendorf tubes (100 μL/tube) containing various concentrations of test compound or control antibiotics (5 μL) at 20× the final concentration in 100% DMSO as described above. Following a 5 min incubation at 37° C., [^14C]N-acetylglucosamine (0.4 μCi/reaction) was added to each tube and incubated for 45 min in a 37° C. heating block. Reactions were stopped through the addition of 100 μL of 8% SDS to each tube. Reactions were then heated at 95° C. for 30 min in a heating block, cooled, briefly centrifuged, and spotted onto pre-wet HA filters ([…]). After washing three times with 5 mL of 0.1% SDS, the filters were rinsed two times with 5 ml of deionized water, allowed to dry, and then counted using a Beckman LS3801 liquid scintillation counter.

[2] = system: S. aureus isolates (HA-MRSA, CA-MRSA, methicillin-susceptible staphylococci); experiment: Kirby-Bauer disc diffusion resistotyping, Example 4; assay type: cell-based, Staphylococcus aureus; conditions: for Total isolates resistant (Kirby-Bauer disc diffusion): all isolates (n = 30)
Method in brief: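 CLSI Kirby-Bauer disc diffusion on Mueller-Hinton agar. Overnight SBA cultures (37 °C) were suspended in saline and adjusted to 0.5 McFarland before spreading. Antibiotic discs were read after 24 h at 37 °C.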

[3] = system: Staphylococcus pseudintermedius isolates (MSSP and MRSP); experiment: Disk diffusion and Epsilometer susceptibility testing, Example 6; assay type: cell-based; conditions: 13 MRSP isolates
[4] = system: S. pneumoniae isolates; experiment: Disk diffusion susceptibility (CLSI/EUCAST), Example 5; assay type: cell-based, Streptococcus pneumoniae
Method in brief: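 Susceptibility to 12 antimicrobials was categorised (S/I/R) using CLSI breakpoints from zones of complete inhibition, read thrice to the nearest millimetre with the mode taken. Incubation was 16–24 h, 37 °C, 5% CO2.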

[5] = system: Escherichia coli; experiment: Broth microdilution MIC, Example 7 (NCL812 and analogues); assay type: cell-based; conditions: 24 hours; 1st and 2nd replicate rows
[6] = system: VRE; experiment: as above; assay type: cell-based, Enterococcus spp.; conditions: for activity against VRE among analogues: MIC testing, two VRE strains; for MIC (μg/ml) at 24 hours, VRE 1: isolate VRE 1; for MIC (μg/ml) at 24 hours, VRE 1 / MIC (μg/ml) at 24 hours, VRE 2: 1st and 2nd replicate rows; for MIC (μg/ml) at 24 hours, VRE 2: isolate VRE 2
Method in brief: (§1)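 CLSI broth microdilution against two MRSA and two VRE strains, tested in duplicate with a third run if results differed by more than one two-fold dilution.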

[7] = system: Gram-negative bacteria (E. coli and Pseudomonas aeruginosa); experiment: Testing of NCL812 analogues, Gram-negative antibacterial activity; assay type: cell-based; conditions: MIC testing
Protocol: Minimum inhibitory concentrations (μg/ml) were determined using the broth microdilution method recommended by the Clinical and Laboratory Standards Institute (CLSI). MIC breakpoints were determined by visual assessment and then confirmed using an ELISA plate reader, measuring absorbance levels at 600 nm. Bacterial growth (turbidity) in the wells with antimicrobial was compared with the amount of growth (turbidity) in the growth-control well (containing no antimicrobial). All isolates were tested in duplicate, if there was a difference of greater than one two-fold dilution in the results, the test was repeated a third time. The purity of the isolates was closely monitored during testing by subculturing the prepared bacterial inoculum onto SBA (sheep blood agar). The MICs of the control strains for the antimicrobial ampicillin were determined for each testing run as an internal quality control. The MIC50, […] and MIC range (minimum and maximum) were calculated for each of the bacterial groups.
MICs were determined against two MRSA strains, two VRE strains and one strain each of E. coli and Pseudomonas aeruginosa.

[8] = system: MRSA; experiment: Broth microdilution MIC, Example 7 (NCL812 and analogues); assay type: cell-based, Staphylococcus aureus; conditions: for activity against MRSA among analogues: MIC testing, two MRSA strains; for MIC (μg/ml) at 24 hours, MRSA 1: isolate MRSA 1; for MIC (μg/ml) at 24 hours, MRSA 1 / MIC (μg/ml) at 24 hours, MRSA 2: 1st and 2nd replicate rows; for MIC (μg/ml) at 24 hours, MRSA 2: isolate MRSA 2
Method in brief: as §1

[9] = system: Pseudomonas aeruginosa; experiment: as above; assay type: cell-based; conditions: 24 hours; 1st and 2nd replicate rows
[10] = Bioassay ranking of the analogues tested; conditions: M + R (MRSA and VRE combined)

Structure (SMILES): CN[C@H](CC(C)C)C(=O)N[C@H]1C(=O)N[C@@H](CC(N)=O)C(=O)N[C@H]2C(=O)N[C@H]3C(=O)N[C@H](C(=O)N[C@H](C(=O)O)c4cc(O)cc(O)c4-c4cc3ccc4O)[C@H](O)c3ccc(c(Cl)c3)Oc3cc2cc(c3O[C@@H]2O[C@H](CO)[C@@H](O)[C@H](O)[C@H]2O[C@H]2C[C@](C)(N)[C@H](O)[C@H](C)O2)Oc2ccc(cc2Cl)[C@H]1O [Vancomycin]
inhibition of cell wall synthesis [1]: 96%
isolates resistant (Kirby-Bauer disc diffusion) ([2]; CA-MRSA (n = 10)): 0.00%
isolates resistant (Kirby-Bauer disc diffusion) ([2]; HA-MRSA (n = 10)): 0.00%
isolates resistant (Kirby-Bauer disc diffusion) ([2]; Methicillin-susceptible staphylococci (n = 10)): 0.00%
Total isolates resistant (Kirby-Bauer disc diffusion) [2]: 0.00%
Total isolates resistant (Kirby-Bauer disc diffusion) ([2]; listed as vancomycin): None of the isolates tested were vancomycin resistant
MRSP isolates susceptible [3]: 77%
disk diffusion zone diameter ([4]; A66.1): 25 mm
disk diffusion zone diameter ([4]; D39): 22 mm
disk diffusion zone diameter ([4]; EF3030): 22 mm
disk diffusion zone diameter ([4]; L82016): 23 mm
disk diffusion zone diameter ([4]; P9): 21 mm
disk diffusion zone diameter ([4]; P21): 21 mm
disk diffusion zone diameter ([4]; TIGR4): 22 mm
disk diffusion zone diameter ([4]; WCH16): 23 mm
disk diffusion zone diameter ([4]; WCH43): 20 mm
disk diffusion zone diameter ([4]; WCH46): 21 mm
disk diffusion zone diameter ([4]; WCH57): 28 mm
disk diffusion zone diameter ([4]; WCH77): 24 mm
disk diffusion zone diameter ([4]; WCH86): 22 mm
disk diffusion zone diameter ([4]; WCH89): 25 mm
disk diffusion zone diameter ([4]; WCH92): 22 mm
disk diffusion zone diameter ([4]; WCH137): 24 mm
disk diffusion zone diameter ([4]; WCH158): 22 mm
disk diffusion zone diameter ([4]; WCH184): 23 mm
disk diffusion zone diameter ([4]; WCH211): 23 mm
disk diffusion zone diameter ([4]; WU2): 21 mm

MIC (μg/ml) at 24 hours, E. coli [5]: >128 µg/mL
MIC (μg/ml) at 24 hours, VRE 1 [6]: 64 µg/mL
MIC (μg/ml) at 24 hours, VRE 2 [6]: 64 µg/mL
MIC (μg/ml) at 24 hours, MRSA 1 [8]: 128 µg/mL
MIC (μg/ml) at 24 hours, MRSA 2 [8]: 128 µg/mL
MIC (μg/ml) at 24 hours, P. aeruginosa [9]: 128 µg/mL
Structure (SMILES): Cl.N=C(N)N/N=C/c1ccc(Cl)cc1 [NCL030]
activity against VRE among analogues [6]: greatest activity
level of Gram-negative antibacterial activity among analogues [7]: highest level of Gram-negative antibacterial activity
activity against MRSA among analogues [8]: greatest activity

MIC ([6]; Enterococcus, VRE, bioassay ranking, VRE, read-out: VRE): 16 mg/L
MIC ([8]; Staphylococcus aureus, MRSA, bioassay ranking, MRSA, read-out: MRSA): 16 mg/L
Structure (SMILES): CCCC/C(=N\NC(=N)N)c1ccc(Cl)cc1.Cl [NCL188, (E)-2-(1-(4-chlorophenyl)pentylidene)hydrazine-1-carboximidamide Hydrochloride]
activity against VRE among analogues [6]: greatest activity
level of Gram-negative antibacterial activity among analogues [7]: highest level of Gram-negative antibacterial activity
activity against MRSA among analogues [8]: greatest activity
M + R [10]: 16 µg/mL

MIC (μg/ml) at 24 hours, E. coli [5]: >128 µg/mL
MIC (μg/ml) at 24 hours, VRE 1 [6]: 128 µg/mL
MIC (μg/ml) at 24 hours, VRE 2 [6]: 128 µg/mL
MIC (μg/ml) at 24 hours, MRSA 1 [8]: 128 µg/mL
MIC (μg/ml) at 24 hours, MRSA 2 [8]: 128 µg/mL
MIC (μg/ml) at 24 hours, P. aeruginosa [9]: 128 µg/mL
Structure (SMILES): Cc1ccc(/C=N/NC(=N)N)cc1.Cl [NCL044]
activity against VRE among analogues [6]: greatest activity
level of Gram-negative antibacterial activity among analogues [7]: highest level of Gram-negative antibacterial activity
activity against MRSA among analogues [8]: greatest activity
